According to PMC2410218, “Identification of an HLA-A^*0201-restricted T-cell epitope derived from the prostate cancer-associated protein prostein” (British Journal of Cancer, 2004):

Legend:
LNCaP 1740 cells = experiment: 51Cr release assay: peptide-activated CD8+ T cells against LNCaP 1740 cells; type: cell-based, human
Protocol: (§1) Briefly, LNCaP 1740 cells were cultured for 24 h in phenol red-free RPMI (Life Technologies) supplemented with 1% nonessential amino acids, 10 mM HEPES (Life Technologies) and 10% charcoal-stripped FCS (Biochrom). The cultivation was continued for additional 48 h in the androgen-depleted medium or in the presence of 1 nM of the synthetic androgen R1881 (Perkin-Elmer Life Sciences, Rodgau-Jügesheim, Germany). Subsequently, the cells were harvested and were used as target cells in a chromium release assay.
After washing 2 × 10^5 peptide-loaded DCs were cocultured with 2 × 10^6 immunomagnetically isolated CD8+ T cells well^−1 of a 24-well tissue culture plate (Greiner, Frickenhausen, Germany). […] After 7 days, cultures were washed and restimulated with peptide-loaded DCs at a responder to stimulator ratio of 5 : 1. After three rounds of weekly restimulation, the cultures were tested for the presence of prostein-specific CTLs.
The HLA-A2 restriction of CD8+ T-cell-mediated lysis was tested at an effector cell to target cell ratio of 30 : 1 in the presence of the anti-HLA-A2 monoclonal antibody derived from the MA2.1 hybridoma (American Type Culture Collection) at a final concentration of 1 μg ml^−1.

[1] = system: prostein mRNA expression in LNCaP 1740 cells; experiment: Quantitative RT-PCR of prostein transcripts in LNCaP 1740 cells under androgen deprivation or stimulation; type: cell-based, human; conditions: 1 nM R1881 for 48 h; real-time PCR normalised to HPRT; means of two LC runs
Protocol: as §1, with “The androgen deprivation and stimulation experiments were performed as described previously ([Xu et al, 2001]). Briefly,” for “Briefly,”
The mRNA quantity of prostein was determined using a LightCycler (LC)-based real-time PCR protocol based on SYBR Green I detection (LC – FastStart DNA Master SYBR Green I; Roche Diagnostics, Mannheim, Germany) and the primer pair Prostein_N1 (5′-[…]-3′) and Prostein_C1 (5′-[…]-3′) to amplify a 240 bp cDNA fragment spanning two exons.
The mRNA copy number was adjusted to the RT–PCR product quantity of hypoxanthine phosphoribosyltransferase (HPRT) determined by LC technique using the primer pair HPRT_N1 (5′-[…]-3′) and HPRT_C1 (5′-[…]-3′) for the amplification of a 238 bp fragment. […]

HLA-A^*0201 = target: T1, HLA-A^*0201 (Homo sapiens, UniProt P04439, D140Y/D185E/D98H/E176V/E277Q/G131W/G231S/I119V/I121R/I166T/I218V/L300P/L318F/N151K/N90K/P208A/P217A/Q86G/Q94H/R138H/R169H/T345S); experiment: Fluorescence-based competition assay on B-cell lines LCL721 or JY; conditions: inhibition of binding of reporter peptide ILK(FITC)EPVHGV relative to positive control peptide YLLPAIVHI set as 100%; all peptides at 10 μM; LCL721 or JY cells, no acid strip; flow cytometry
T1 construct: endogenous in cells; host or cells: B-cell lines LCL721 or JY
Protocol: Binding studies of potential HLA-A^*0201 fitting peptides were carried out using the B-cell lines LCL721 or JY and a fluorescence-based competition assay, essentially as described by [van der Burg et al (1995)], but without performing acid strip. Reporter peptide was ILK(FITC)EPVHGV from HIV-1 reverse transcriptase and positive control was […] from RNA helicase p72. Fluorescence intensities were recorded by flow cytometry (FACSCALIBUR; Becton Dickinson, Heidelberg, Germany).

[2] = system: T2 cells pulsed with the individual peptides; experiment: 51Cr release assay: in vitro-stimulated CD8+ T cells against peptide-pulsed T2 cells; type: cell-based, human; conditions: CD8+ T cells stimulated four times with peptide-pulsed autologous DCs (20 μg ml^-1 of each peptide); T2 cells pulsed at 50 μg ml^-1; E:T 20:1; 4 h 51Cr release; triplicates
Protocol: Briefly, peripheral blood mononuclear cells were prepared from blood samples by Ficoll–Hypaque (Biochrom) density centrifugation. Monocytes were isolated by immunomagnetic cell separation with an anti-CD14 antibody coupled to paramagnetic microbeads (Miltenyi Biotech, Bergisch Gladbach, Germany) according to the manufacturer's instructions. Mature monocyte-derived dendritic cells (DCs) were generated as described previously ([Schmitz et al, 2000]).
After washing 2 × 10^5 peptide-loaded DCs were cocultured with 2 × 10^6 immunomagnetically isolated CD8+ T cells well^−1 of a 24-well tissue culture plate (Greiner, Frickenhausen, Germany). […] The T cells were cultured in 2 ml RPMI 1640 medium well^−1 supplemented with 10% human serum (CCpro, Neustadt, Germany), 100 U ml^−1 IL-2 and 10 ng ml^−1 IL-7 (both from Strathmann Biotech, Hanover, Germany). After 7 days, cultures were washed and restimulated with peptide-loaded DCs at a responder to stimulator ratio of 5 : 1. After three rounds of weekly restimulation, the cultures were tested for the presence of prostein-specific CTLs. […]

K562 cells = experiment: 51Cr release assay: peptide-activated CD8+ T cells against K562 cells; type: cell-based, human; conditions: E:T 3:1, 10:1, 30:1; 4 h 51Cr release
Protocol: After washing 2 × 10^5 peptide-loaded DCs were cocultured with 2 × 10^6 immunomagnetically isolated CD8+ T cells well^−1 of a 24-well tissue culture plate (Greiner, Frickenhausen, Germany). […] The T cells were cultured in 2 ml RPMI 1640 medium well^−1 supplemented with 10% human serum (CCpro, Neustadt, Germany), 100 U ml^−1 IL-2 and 10 ng ml^−1 IL-7 (both from Strathmann Biotech, Hanover, Germany). After 7 days, cultures were washed and restimulated with peptide-loaded DCs at a responder to stimulator ratio of 5 : 1. After three rounds of weekly restimulation, the cultures were tested for the presence of prostein-specific CTLs.
Cytotoxic activity of the in vitro-stimulated CTLs was assayed against the HLA-A^*0201-positive mutant cell line T2 pulsed with the individual prostein-derived peptides or an irrelevant HLA-A^*0201-binding peptide from HIV-1 reverse transcriptase at a concentration of 50 μg ml^−1, against the PCa cell line LNCaP 1740, the melanoma cell line 93.04A12.1 and against K562 cells as targets in a 4 h standard ^51Cr release assay as described previously ([Kiessling et al, 2002]). The HLA-A2 restriction of CD8+ T-cell-mediated lysis was tested at an effector cell to target cell ratio of 30 : 1 in the presence of the anti-HLA-A2 monoclonal antibody derived from the MA2.1 hybridoma (American Type Culture Collection) at a final concentration of 1 μg ml^−1.

Compound | T-cell-mediated cytotoxicity against LNCaP 1740 cells deprived of androgen compared with cells grown in the presence of R1881 (LNCaP 1740 cells; 1 nM R1881 for 48 h after 24 h in charcoal-stripped FCS medium, E:T 30:1, all three donors) | Prostein mRNA expression in LNCaP 1740 under androgen deprivation compared with cells cultured in the presence of R1881 [1] | rBA (%) relative binding affinity (HLA-A^*0201) [%] | Induction of peptide-specific CTLs (specific lysis of peptide-loaded T2 cells) [2] | Lysis of LNCaP 1740 cells by CTLs specifically recognising the peptide (LNCaP 1740 cells; HLA-A*0201-positive, prostein-expressing PCa cell line, E:T 3:1, 10:1, 30:1, 4 h 51Cr release, three donors) | Lysis of K562 cells by peptide-activated T cells (natural killer cell-like activity) (K562 cells)
C[C@]1(O)CC[C@H]2[C@@H]3CCC4=CC(=O)CCC4=C3C=C[C@@]21C [R1881, reference compound] | clearly reduced | downregulated but still detectable | – | – | – | –
ALLPRLHQL [compound 1487] | – | – | 84.1 | – | – | –
CLAAGITYV [compound 2004] | – | – | 94.0 | induced specific CTLs in all three donors tested | capable of lysing | failure
